Columns and labels:
Conditions in all cases: 48 h
NOMO1 [1] = test: AUC of viability dose-response curve (% viability x log10 dose units); higher = less sensitive
In short: (§1)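 Leukemia cells adapted to each medium (500 or 1000 cells/well, 1536-well plates) were exposed to library compounds in DMSO for 48 h at 37°C at 11 threefold doses, 47 μM to 0.79 nM. Luminescence by CellTiter-Glo One was normalised per plate to DMSO and cell-free wells, then fitted with a four-parameter log-logistic curve on log10 dose. Curves above full viability were scaled and quality-control failures removed before area under the curve was integrated by trapezoidal rule.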

P12-Ichikawa [2] = test: as above
In short: as §1

SEM cells [3] = test: as above
In short: as §1

SEM cells [4] = test: cell viability relative to DMSO control; higher = less cytotoxic
In short: (§2)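 In 1536-well plates, 5 μl of leukemia cells were seeded per well: 500 cells/well for NOMO1 or SEM and 1000 cells/well for P12-Ichikawa. Each line had first been adapted for at least four passages in each medium. Library compounds in DMSO were pin-dosed at 11 threefold concentrations between 47 μM and 0.79 nM, and CellTiter-Glo One luminescence was read after 48 h at 37°C. Viability is a per-plate percentage relative to DMSO wells, with cell-free wells as background.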

P12-Ichikawa [5] = test: as above
In short: as §2

NOMO1 [6] = test: as above
In short: as §2

CCN1CCCC1CNC(=O)c1cc(S(=O)(=O)CC)c(N)cc1OC (centres undefined)
AUC of viability dose-response curve
Conditions | NOMO1 [1] | P12-Ichikawa [2] | SEM cells [3]
HPLM + 10% dialyzed FBS | 458 | 463 | 474
RPMI 5 mM glucose + 10% FBS | 459 | 461 | 474
RPMI 5 mM glucose + 10% dialyzed FBS | 469 | 469 | 453

CN1[C@@H]2CCC[C@H]1C[C@@H](NC(=O)c1nn(C)c3ccccc13)C2.Cl
SEM cells [4], HPLM + 10% dialyzed FBS
Conditions | cell viability [%]
0.000781 µM | 112
0.00234 µM | 110
0.00702 µM | 126
0.0211 µM | 115
0.0632 µM | 126
0.19 µM | 123
0.569 µM | 124
1.71 µM | 125
5.12 µM | 133
15.4 µM | 119
46.1 µM | 115

AUC of viability dose-response curve
Conditions | NOMO1 [1] | P12-Ichikawa [2] | SEM cells [3]
HPLM + 10% dialyzed FBS | 468 | 463 | 468
RPMI 5 mM glucose + 10% FBS | 466 | 444 | 434
RPMI 5 mM glucose + 10% dialyzed FBS | 465 | 465 | 457

O=C(O)c1ccccc1C(=O)Nc1ccc(-c2ccccc2)cc1
cell viability [%]
Conditions | P12-Ichikawa [5] | SEM cells [4]
HPLM + 10% dialyzed FBS, 0.000781 µM | 123 | 63.8
HPLM + 10% dialyzed FBS, 0.00234 µM | 118 | 130
HPLM + 10% dialyzed FBS, 0.00702 µM | 128 | 117
HPLM + 10% dialyzed FBS, 0.0211 µM | 124 | 124
HPLM + 10% dialyzed FBS, 0.0632 µM | 128 | 119
HPLM + 10% dialyzed FBS, 0.19 µM | 125 | 118
HPLM + 10% dialyzed FBS, 0.569 µM | 123 | 130
HPLM + 10% dialyzed FBS, 1.71 µM | 119 | 124
HPLM + 10% dialyzed FBS, 5.12 µM | 122 | 127
HPLM + 10% dialyzed FBS, 15.4 µM | 114 | 128
HPLM + 10% dialyzed FBS, 46.1 µM | 108 | 88.5
RPMI 5 mM glucose + 10% dialyzed FBS, 0.000781 µM | 119 | –
RPMI 5 mM glucose + 10% dialyzed FBS, 0.00234 µM | 123 | –
RPMI 5 mM glucose + 10% dialyzed FBS, 0.00702 µM | 124 | –
RPMI 5 mM glucose + 10% dialyzed FBS, 0.0211 µM | 124 | –
RPMI 5 mM glucose + 10% dialyzed FBS, 0.0632 µM | 138 | –
RPMI 5 mM glucose + 10% dialyzed FBS, 0.19 µM | 123 | –
RPMI 5 mM glucose + 10% dialyzed FBS, 0.569 µM | 119 | –
RPMI 5 mM glucose + 10% dialyzed FBS, 1.71 µM | 124 | –
RPMI 5 mM glucose + 10% dialyzed FBS, 5.12 µM | 117 | –
RPMI 5 mM glucose + 10% dialyzed FBS, 15.4 µM | 130 | –
RPMI 5 mM glucose + 10% dialyzed FBS, 46.1 µM | 113 | –

AUC of viability dose-response curve
Conditions | NOMO1 [1] | P12-Ichikawa [2] | SEM cells [3]
HPLM + 10% dialyzed FBS | 462 | 468 | 449
RPMI 5 mM glucose + 10% FBS | 463 | 461 | 457
RPMI 5 mM glucose + 10% dialyzed FBS | 460 | 469 | 456

CC[C@H]1OC(=O)[C@H](C)[C@@H](O[C@H]2C[C@@](C)(OC)[C@@H](O)[C@H](C)O2)[C@H](C)[C@@H](O[C@@H]2O[C@@H](C)C[C@H](N(C)C)[C@H]2O)[C@](C)(O)C[C@@H](C)C(=O)[C@H](C)[C@@H](O)[C@]1(C)O
cell viability [%]
Conditions | NOMO1 [6] | P12-Ichikawa [5] | SEM cells [4]
HPLM + 10% dialyzed FBS, 0.000781 µM | 86.3 | 83.8 | 79.6
HPLM + 10% dialyzed FBS, 0.00234 µM | 80.4 | 88.3 | 80.8
HPLM + 10% dialyzed FBS, 0.00702 µM | 97.4 | 94.6 | 87.8
HPLM + 10% dialyzed FBS, 0.0211 µM | 93 | 98.3 | 95.4
HPLM + 10% dialyzed FBS, 0.0632 µM | 105 | 91.2 | 80.6
HPLM + 10% dialyzed FBS, 0.19 µM | 105 | 89.9 | 85.6
HPLM + 10% dialyzed FBS, 0.569 µM | 108 | 97.9 | 105
HPLM + 10% dialyzed FBS, 1.71 µM | 87 | 94.6 | 81.4
HPLM + 10% dialyzed FBS, 5.12 µM | 80.9 | 84 | 89.8
HPLM + 10% dialyzed FBS, 15.4 µM | 63.4 | 57.4 | 82.3
HPLM + 10% dialyzed FBS, 46.1 µM | 56.7 | 18.4 | 32.2
RPMI 5 mM glucose + 10% FBS, 0.000781 µM | 77.5 | 84.9 | 83
RPMI 5 mM glucose + 10% FBS, 0.00234 µM | 81 | 87 | 94.3
RPMI 5 mM glucose + 10% FBS, 0.00702 µM | 79.8 | 85.6 | 101
RPMI 5 mM glucose + 10% FBS, 0.0211 µM | 94.9 | 91.3 | 102
RPMI 5 mM glucose + 10% FBS, 0.0632 µM | 91.8 | 87.6 | 90
RPMI 5 mM glucose + 10% FBS, 0.19 µM | 92.1 | 90 | 105
RPMI 5 mM glucose + 10% FBS, 0.569 µM | 88.8 | 91.7 | 106
RPMI 5 mM glucose + 10% FBS, 1.71 µM | 84.9 | 87.8 | 106
RPMI 5 mM glucose + 10% FBS, 5.12 µM | 81 | 87.3 | 94.8
RPMI 5 mM glucose + 10% FBS, 15.4 µM | 88.8 | 91.8 | 35
RPMI 5 mM glucose + 10% FBS, 46.1 µM | 55 | 13.6 | 18.7
RPMI 5 mM glucose + 10% dialyzed FBS, 0.000781 µM | 77.8 | 88.4 | 79.5
RPMI 5 mM glucose + 10% dialyzed FBS, 0.00234 µM | 90.3 | 84.3 | 84.9
RPMI 5 mM glucose + 10% dialyzed FBS, 0.00702 µM | 91 | 88.7 | 84.7
RPMI 5 mM glucose + 10% dialyzed FBS, 0.0211 µM | 91.6 | 91.8 | 96.9
RPMI 5 mM glucose + 10% dialyzed FBS, 0.0632 µM | 102 | 84.1 | 89.4
RPMI 5 mM glucose + 10% dialyzed FBS, 0.19 µM | 86.8 | 93.4 | 94.5
RPMI 5 mM glucose + 10% dialyzed FBS, 0.569 µM | 93.3 | 89.3 | 92.2
RPMI 5 mM glucose + 10% dialyzed FBS, 1.71 µM | 101 | 92.9 | 86.8
RPMI 5 mM glucose + 10% dialyzed FBS, 5.12 µM | 90.3 | 89.8 | 80.6
RPMI 5 mM glucose + 10% dialyzed FBS, 15.4 µM | 95.3 | 88.4 | 80.7
RPMI 5 mM glucose + 10% dialyzed FBS, 46.1 µM | 51.8 | 28 | 24.5

AUC of viability dose-response curve
Conditions | NOMO1 [1] | P12-Ichikawa [2] | SEM cells [3]
HPLM + 10% dialyzed FBS | 423 | 402 | 401
RPMI 5 mM glucose + 10% FBS | 403 | 402 | 418
RPMI 5 mM glucose + 10% dialyzed FBS | 429 | 411 | 400

Cc1cccc(C)c1NC(=O)CN1CCCC1=O
SEM cells [4], HPLM + 10% dialyzed FBS
Conditions | cell viability [%]
0.000781 µM | 115
0.00234 µM | 121
0.00702 µM | 125
0.0211 µM | 123
0.0632 µM | 125
0.19 µM | 122
0.569 µM | 126
1.71 µM | 129
5.12 µM | 122
15.4 µM | 116
46.1 µM | 103

AUC of viability dose-response curve
Conditions | NOMO1 [1] | P12-Ichikawa [2] | SEM cells [3]
HPLM + 10% dialyzed FBS | 463 | 444 | 470
RPMI 5 mM glucose + 10% FBS | 458 | 434 | 461
RPMI 5 mM glucose + 10% dialyzed FBS | 470 | 458 | 431

Source: the supplement of paper PMC11451515
